Tests used:
[1] = test system: phospho/total Akt in primary murine aortic SMCs; experiment: CML-AGE-stimulated Akt phosphorylation, Western blot; assay type: cell-based; details: 1 µM compound, 1.5 h pretreatment; CML-AGE 10 µg/ml 20 min; p < 0.05
From the text: (§1) We tested the effects of compounds 1–13 on cellular signaling in primary murine aortic SMCs. […] In primary murine aortic SMCs, we tested the effects of CML-AGE RAGE ligand on Akt and ERK1/2 phosphorylation, as these pathways are seminally linked to fundamental properties of these cells and their responses to stress, such as growth, proliferation, hypertrophy, migration, and survival.
(§2) Figure 3 Effects of compounds 1–13 on RAGE ligand-stimulated phosphorylation of ERK and AKT in primary murine aortic SMCs. Primary murine SMCs were incubated with compounds 1–13 (1 μM) for 1.5 h and then treated with RAGE ligand CML-AGE (10 μg/ml) for 20 minutes. Cells were harvested and total lysates were subjected to Western blotting with antibodies against phospho-ERK and phospho-AKT. Blots were then re-probed with antibodies to total-ERK and total-AKT and relative optical density (ROD) is reported. (a) Quantified levels of phosphorylated/total ERK normalized to total ERK are shown. (b) Quantified levels of phosphorylated/total AKT normalized to total AKT are shown. Assays results shown are representative of three independent experiments. Error bars represent SEM. *indicates p < 0.05 comparing CML-AGE vs. CML-AGE and compound treatment and ^#indicates p < 0.001 comparing CML-AGE vs. serum free medium (SFM) alone vehicle. Above each Western blot, S = serum-free medium and C = CML-AGE; numbers above the blots indicate the compound number.
(§3) Total protein extracts were prepared from primary murine aortic smooth muscle cells using cell lysis buffer (Cell Signaling Technology, Beverly, MA). Equal amounts of protein (30 μg/sample) were subjected to SDS-PAGE (4–12%) followed by electrophoretic transfer to nitrocellulose membranes. Nonspecific binding was blocked by incubation of membranes with BSA (5%) for 1 h. The blot was incubated with one of the following antibodies as the primary antibody for the reaction: anti-phospho-ERK1/2 (P-ERK1/2) IgG, anti-total-ERK1/2 (T-ERK1/2) IgG, anti-phospho-AKT (P-AKT) IgG, and anti-total-AKT (T-AKT) IgG (Cell Signaling Technology). Each primary antibody was used at a dilution of 1:1,000 overnight at 4 °C according to the manufacturer’s instructions. Horseradish peroxidase-conjugated secondary antibodies (1:2,500; Amersham Biosciences) were used to identify sites of binding of each primary antibody.
(§4) Murine vascular SMCs were cultured from the aortas of 10-week old male mice using a modification of the procedure of Travo and Barret[68]. SMCs were cultured following an explant protocol in accordance with institutional guidelines. Wild-type murine aortic vascular SMCs were isolated and used between passages 8 to 12. Human aortic vascular smooth muscle cells were purchased from American Type Culture Collection (ATCC, Manassas, VA) and cultured according to the methods recommended by ATCC. Murine primary aortic endothelial cells were from 6- to 8-week-old wild-type C57BL/6J mice (Jackson Laboratories, Bar Harbor ME) and used under passage 10[69]. THP-1 cells were obtained from the American Type Tissue Collection (ATCC, Manassas VA) and used according to the manufacturer’s instructions.

[2] = test system: Il6 mRNA in primary murine aortic endothelial cells (MAECs); experiment: CML-AGE-mediated upregulation of Il6 mRNA, real-time quantitative PCR; assay type: cell-based; details: 1 µM compound 1.5 h, CML-AGE 10 µg/ml 6 h
Procedure: First, we tested the effects of RAGE ligand CML-AGE in primary murine aortic endothelial cells (MAECs). […] To assess the effects of the compounds, we pre-treated MAECs for 1.5 h with compounds 1–13 (1 μM).
Figure 5 Effects of compounds 1–13 on RAGE ligand-stimulated inflammatory gene expression in primary murine aortic endothelial cells and human THP-1 cells. Primary murine aortic endothelial cells (a,b) or human THP1 cells (c,d) were subjected to 1.5 h incubation with compounds 1–13 (1 μM) followed by stimulation with CML-AGE (10 μg/ml) for 6 h. Cells were then harvested and gene expression of the inflammatory markers Tnfα and Il6 normalized to β-actin (a,b) or 18s rRNA (c,d) was performed. Assays were performed in triplicate and results are representative of three independent experiments. Error bars represent SEM. *indicates p < 0.05 comparing CML-AGE vs. CML-AGE and compound treatment ^#indicates p < 0.001 comparing CML-AGE vs. SFM vehicle (SFM).
(§5) Total RNA was extracted from cells and tissues using the RNeasy lipid kit (Qiagen, Hilden, Germany). cDNA was synthesized with MultiScribe reverse transcriptase (Applied Biosystems, Foster City, CA). Real-time quantitative PCR was performed using the TaqMan method (50 °C for 2 min, 95 °C for 10 min, and 40 cycles of 95 °C for 15 s and 60 °C for 1 min) with premade primer sets (Applied Biosystems). The relative abundance of transcripts was normalized according to the expression of 18S rRNA (for human cells) or β-actin (for murine cells and tissues) using the ΔΔCt method. Supplementary Table S4 lists the specific primers used in the outlined studies.

[3] = test system: Tnfa mRNA in kidney; experiment: CML-AGE infusion in vivo, kidney Tnfa mRNA; set-up: species or system C57BL/6J mice; details: mice; four doses 5 mg/kg i.p. every 12 h; CML-AGE 150 µg i.p.; kidney 4 h later; p < 0.05
Procedure: Next, it was essential to test the ability of the thirteen compounds to block RAGE ligand-mediated inflammation in vivo. […] To test this concept in the present study, we treated wild-type mice with CML-AGE (150 μg) by intraperitoneal injection after pretreatment with four doses of compounds 1–13 (5 mg/kg per dose, 12 h apart). Thirty minutes after the fourth dose of compound, mice were injected with CML-AGE and sacrificed 4 h later. Kidney tissue was retrieved and subjected to real-time quantitative PCR for detection of transcripts encoding inflammatory mediators.
Figure 6 Effect of compounds 1–13 in vivo. (a,b) C57BL/6J mice were subjected to intraperitoneal administration of four doses of compounds 1–13 (5 mg/kg every 12 h) or equal volumes of vehicle (PBS). Thirty minutes after the final injection, mice were injected with CML-AGE (150 μg) by intraperitoneal administration. Four h later, mice were sacrificed and kidney was retrieved. Real time quantitative PCR was performed for detection of Tnfa (a) and Il6 (b). (c) Assessment of compounds on cardiac functional recovery in diabetes. C57BL/6 mice were rendered type 1 diabetic with streptozotocin. After a mean range of 37–45 days of untreated hyperglycemia, mice were sacrificed and hearts rapidly retrieved for assessment of the efficacy of compounds 1–13 (1 μM) or vehicle, DMSO, on left ventricular developed pressure (LVDP) after ischemia. All hearts were subjected to 30 minutes of global ischemia followed by 60 min of reperfusion. Test compounds were introduced 10 minutes prior to the start of ischemia and continued throughout the reperfusion protocol. In (a–c), N = 5–6 mice per group. Error bars represent SEM. In (a–c), *indicates p < 0.05 vs. respective control, and in (a,b), ^#indicates p < 0.001 comparing CML-AGE vs. PBS treatment.
as §5
Male, wild-type C57BL/6J mice were purchased from the Jackson Laboratories. At age 8 weeks, mice were pretreated with 4 doses of compounds 1–13, 5 mg/kg, by intraperitoneal administration twice daily for a total of two days and four total doses. Control treatment consisted of DMSO diluted into PBS. Thirty minutes after the last dose, CML-AGE (150 μg) was injected by intraperitoneal route. 4 h later, mice were sacrificed and kidney tissue was rapidly retrieved for preparation of mRNA and performance of real time quantitative PCR for the following mRNA transcripts, Tnfa and Il6.

[4] = test system: phospho/total ERK1/2 in primary murine aortic SMCs; experiment: CML-AGE-stimulated ERK1/2 phosphorylation, Western blot; assay type: cell-based; details: 1 µM compound, 1.5 h pretreatment; CML-AGE 10 µg/ml 20 min; p < 0.05
From the text: as §1, §2, §3, §4

[5] = test system: diabetic mouse heart (ex vivo); experiment: Isolated perfused diabetic heart, ischemia/reperfusion, LVDP recovery; set-up: species or system C57BL/6 mice; details: streptozotocin-diabetic mouse hearts ex vivo; 1 µM compound; 30 min ischemia, 60 min reperfusion; p < 0.05
Procedure: Figure 6 Effect of compounds 1–13 in vivo. (a,b) C57BL/6J mice were subjected to intraperitoneal administration of four doses of compounds 1–13 (5 mg/kg every 12 h) or equal volumes of vehicle (PBS). Thirty minutes after the final injection, mice were injected with CML-AGE (150 μg) by intraperitoneal administration. Four h later, mice were sacrificed and kidney was retrieved. Real time quantitative PCR was performed for detection of Tnfa (a) and Il6 (b). (c) Assessment of compounds on cardiac functional recovery in diabetes. C57BL/6 mice were rendered type 1 diabetic with streptozotocin. […]
Finally, we tested the effects of these compounds in settings in which RAGE ligands naturally accumulate, particularly the diabetic heart. […] At the end of reperfusion, we measured left ventricular developed pressure (LVDP) in the hearts, a key measure of functional recovery after injury.
Male C57BL/6 mice, age 8–12 weeks, were purchased from The Jackson Laboratory and rendered diabetic by 55 mg/kg by intraperitoneal route of streptozotocin (STZ) (Sigma Aldrich, St. Louis MO) per day in fresh citrate buffer (0.05 mol/l; pH 4.5) for 5 consecutive days. […] Left ventricular developed pressure (LVDP) was measured using a latex balloon in the left ventricle and monitored continuously on an ADI recorder. […]

SMILES | effect on CML-AGE-mediated stimulation of phospho/total-Akt [1] | effect on CML-AGE-mediated upregulation of Il6 [2] | effect on CML-AGE-mediated upregulation of Tnfa mRNA in kidney [3] | effect on CML-AGE-mediated phospho/total ERK1/2 [4] | left ventricular developed pressure (LVDP) functional recovery after ischemia/reperfusion vs DMSO vehicle [5]
COc1cc(SC)ccc1C(=O)Nc1cccc(C)n1 [Compound 1] | significant suppression | significant suppression | significant suppression | significant suppression | –
C=CCOc1ccc2c(C(F)(F)F)cc(=O)oc2c1 [Compound 2] | significant suppression | significant suppression | significant suppression | significant suppression | –
Cc1nc2ccccc2n1CC(O)Cn1c2ccccc2c2ccccc21 (centres unmarked) [Compound 3] | significant suppression | significant suppression | significant suppression | significant suppression | statistically-significantly higher LVDP
OC(Cn1ccc2ccccc21)Cn1cnc2ccccc21 (centres unmarked) [Compound 4] | significant suppression | significant suppression | – | significant suppression | –
Cl.Oc1cccc(Nc2nc(-c3ccc(F)cc3F)cs2)c1 [Compound 5] | did not significantly suppress | significant suppression | significant suppression | significant suppression | –
COc1cc(NC(C)=O)c(Cl)cc1C(=O)Nc1nccs1 [Compound 6] | significant suppression | significant suppression | significant suppression | did not significantly affect | –
COC(=O)c1cc(OC)c(OC)cc1NC(=O)C1Oc2ccccc2OC1C (centres unmarked) [Compound 7] | did not significantly suppress | significant suppression | – | did not significantly affect | statistically-significantly higher LVDP
Cc1ccc(S(=O)(=O)N(C)C(F)F)cc1 [Compound 8] | did not significantly suppress | significant suppression | significant suppression | did not significantly affect | –
